Data published in US11718612B2, “Inhibitors of receptor interacting protein kinase I for the treatment of disease” (Board of Regents, The University of Texas System, priority 2019, dated 2023).

Tests used:
[1] = biological target: RIPK1 (Homo sapiens (Human), UniProt Q13546); experiment: ADP-Glo kinase assay, RIPK1 activity; type: biochemical; conditions: 5 nM RIPK1, 50 μM ATP, 6 hr reaction
Experimental: In order to measure RIPK1 activity the ADP-Glo kinase assay (Promega, Catalog #V7002) was used to measure the conversion of ATP to ADP. This enzymatic assay was performed in a 384-well white, Optiplate (Perkin Elmer, Catalog #6007299) with assay buffer consisting of 50 mM HEPES pH 7.5 (Gibco, Catalog #15630-080), 50 mM NaCl (Teknova, Catalog #S0252), 30 mM MgCl2 (Ambion, Catalog #AM9530G), 1 mM DTT (Santa Cruz Biotechnology, Catalog #sc-29089), 0.05% BSA (Sigma, Catalog #A3059-50G) and 0.02% CHAPS (Sigma, Catalog #C5070-5G). Stock solutions of the test compounds were prepared in 100% DMSO (Sigma, Catalog #D2650) and serially diluted 1:3 using 100% DMSO. Compounds were additionally diluted 1:40 in assay buffer, and 2 μL/well were transferred to the assay plate. 4 μL/well (final concentration of 5 nM) of RIPK1 protein (SignalChem, Catalog #R07-11G-05) diluted in assay buffer and added to the assay plate followed by a 10 minute preincutation at room temperature. 4 μL/well of ATP (Promega, Catalog #V7002) (final concentration of 50 μM) diluted in assay buffer were then added to the assay plate followed by a 6 hr reaction time. Final concentrations of RIPK1 and ATP refer to a 10 μL volume. Luminescence was measured using a BioTek Synergy™ NEO plate reader. IC50 values were calculated using a four-parameter logistic curve fit using Genedata Screener software.

[2] = tested on: U937 cells; experiment: Human U937 cellular necroptosis assay; type: cell-based; conditions: U-937; U937 cells stimulated with 25 ng/mL human TNFalpha and 25 μM z-VAD-FMK; 22 hr; Cell Titer-Glo viability

Sequence of RIPK1 (Q13546 1-327): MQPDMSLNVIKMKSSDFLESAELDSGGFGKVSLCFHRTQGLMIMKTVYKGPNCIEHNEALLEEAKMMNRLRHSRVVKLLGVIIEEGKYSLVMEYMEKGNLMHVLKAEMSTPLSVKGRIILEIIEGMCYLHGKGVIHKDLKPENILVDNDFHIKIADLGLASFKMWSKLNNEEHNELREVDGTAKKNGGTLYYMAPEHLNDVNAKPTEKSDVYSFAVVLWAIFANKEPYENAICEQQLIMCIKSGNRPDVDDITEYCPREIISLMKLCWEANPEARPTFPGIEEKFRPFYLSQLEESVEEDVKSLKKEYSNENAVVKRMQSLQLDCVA

| SMILES | IC50 [1] [nM] | IC50 [2] [nM] |
| --- | --- | --- |
| O=C(Nc1cccc(Cl)c1F)c1ncn(Cc2cccc(F)c2)n1 [Example 88, N-(3-chloro-2-fluorophenyl)-1-(3-fluorobenzyl)-1H-1,2,4-triazole-3-carboxamide] | 36.3 | 872 |
| O=C(Nc1cccc(Cl)c1F)c1ncn(Cc2ccc(F)cn2)n1 [Example 89, N-(3-chloro-2-fluorophenyl)-1-((5-fluoropyridin-2-yl)methyl)-1H-1,2,4-triazole-3-carboxamide] | 1600 | 5580 |
| Cc1ccc(Cn2cnc(C(=O)Nc3cccc(Cl)c3F)n2)cn1 [Example 90] | 1460 | 2600 |
| O=C(Nc1cccc2nn[nH]c12)c1ncn(Cc2ccccc2)n1 [Example 100, N-(1H-benzo[d][1,2,3]triazol-7-yl)-1-benzyl-1H-1,2,4-triazole-3-carboxamide] | 685 | 4140 |
| O=C1c2nn(Cc3cc(F)ccc3F)c(Br)c2CCN1c1cccc(Cl)c1F [Example 101, 3-Bromo-6-(3-chloro-2-fluorophenyl)-2-(2,5-difluorobenzyl)-2,4,5,6-tetrahydro-7H-pyrazolo[3,4-c]pyridin-7-one] | 17.4 | 16.2 |
| O=C(Nc1cccc(Cl)c1F)c1ncn(Cc2ncccc2F)n1 [Example 102, N-(3-chloro-2-fluorophenyl)-1-((3-fluoropyridin-2-yl)methyl)-1H-1,2,4-triazole-3-carboxamide] | 195 | 1260 |
